{"source": "patent US20090175924A1", "about": "“COATED STENT” (BIONERIS AB, priority 2002, published 2009)", "key": {"mice": {"test_system": "mice", "assay_type": "in vivo", "conditions": "intravenous", "experimental": "A method described by S. Irwin (Psychopharmacologica, 1968, 13, 222) was used to detect general physiological, behavioural and toxic effects of a series of compounds. The tested compounds were administered intra veneously to mice (3 animals per compound and dose) and the behavioural modification and neurotoxicity symptoms such as mortality, sedation, excitation, aggressiveness, straub, writhes, convulsions, tremor, exophtalamos, salivation, lacrimation, piloerection, defecation, fear, traction, reactivity to touch, loss of righting reflex, sleep, motor incoordination, muscle tone, stereotypies, catalepsy, grasping, ptosis, difficulty in respiration, corneal reflex, analgesia and gait were recorded compared to a control group, Furthermore, rectal temperature and pupil diameter were recorded."}, "Wistar rats": {"test_system": "Wistar rats", "experiment": "Neointima formation after balloon catheter injury of the carotid artery in rats", "assay_type": "in vivo, rat", "conditions": "for elasticity of the vessel walls (microscopic investigation): compared to the control group; for Neointima formation / Reduction (%) of neointima formation: rat carotid, 14 days post-operatively, 1 mg/kg/hr; for Neointima formation: subcutaneous osmotic minipumps; for Reduction (%) of neointima formation: versus saline control, osmotic minipumps", "experimental": "The effects on neointima formation was assessed after inducing vessel injury in rats with a balloon catheter. Neointima formation is an important part in the process of restenosis. Adult mate Wistar rats (250-260 g) were housed under standard conditions and were fed with commercial rat chow and water ad libitum. During the experiment D-myo-inositol-1,2,6-trisphosphate (IP3) was administered via subcutaneously operated osmotic minipumps with a dose level of 1 mg/kg/hr. A control group received saline solution by osmotic minipumps. The animals were anaesthetised with an intraperitoneal injection of ketamine, 100 mg/kg, (MTC Pharmaceuticals, Cambridge, Ontario, Canada) and xylazine, 10 mg/kg (Bayer Inc., Etobicoke, Ontario, Canada). Using a dissecting microscope, the left carotid artery was exposed on the ventral side of the neck via a midline incision. The bifurcation of the carotid artery was located and two ligatures were placed around the external carotid artery, which was then tied off with the distal ligature. After temporarily occluding the internal carotid artery with a vascular clamp, a small incision was made between the two ligatures placed around the external carotid artery to introduce the endothelial denudation device, an inflated […] Fogarty embolectomy catheter (Baxter Healthcare, Buckinghamshire, UK). Each animal was de-endothelialised by three passages of the catheter and the carotid artery was tied off proximal to the incision hole. The clamp was removed and the pulse of the carotid artery was rechecked. The skin incision was closed with a single suture. 14 days post-operatively, the animals were sedated. An abdominal incision was made to access the abdominal aorta for insertion of a cannula connected to a perfusion apparatus. The animals where killed by an overdose of anaestetic and then perfused with heparinised phosphate buffered saline (pH 7.4) at a rate of 100 ml/min per kg body weight and a pressure of 120 mm Hg. After replacement of saline, 4% paraformaldehyde in isotonic saline was introduced at the same flow rate. After fixation in situ, the carotids were dissected free. Three mid-carotid segments, approximately 10 mm long were rinsed and placed in 4% parafomaldehyde for another 16 hours before embedding and freezing in Tissue-Tek OCT media (Miles Inc., Elkhart, Ind., USA). Frozen sections were stained with Movat's pentachrome and immunohistochemistry was performed using antibodies in order to examine the process of restenosis by measurement of the neointima formation.\nIn a procedure similar to the one described in Example 3, D-3,4,5-tri-O-(phenylcarbamoyl)myo-inositol-1,2,6-trisphosphate (PP 11-201) was added with the result shown below: […]"}, "[1]": {"test_system": "Human pulmonary artery smooth muscle cells (HPASMCs)", "experiment": "FGF2-stimulated proliferation of smooth muscle cells (3H-thymidine incorporation)", "assay_type": "cell-based", "conditions": "1 nM FGF2, 24 hours", "experimental": "Vascular smooth muscle cell proliferation contributes to restenosis after coronary angioplasty. Human pulmonary artery smooth muscle cells (HPASMCs) were maintained in Medium 231 supplemented with Smooth muscle Growth Supplement. The cells, medium and supplement were obtained from Caascade Biologics Inc., Portland, Oreg., USA.\nThe cells were grown as monolayer culture in 100-mm diameter plastic tissue culture dishes (Nunc, Roskilde, Denmark) with 10 ml medium in 37° C. in a humidified atmosphere of 95% air and 5% CO2 and subcultured at 4- to 6-day intervals. For measurement of cell growth, cells were seeded at density 5.0*10^3/well in 96 well dishes in DMEM+0.2% FBS for 3 days. Culture medium was then removed and cells were seeded in DMEM+0.2% FBS with 1 nM of basic fibroblast growth factor (FGF2). The addition of FGF2 induces cell proliferation of the HPASMCs. The FGF2 used was a recombinant human substance from Boehringer Mannheim Biochemica, Espoo, Finland. Various concentrations of D-myo-inositol-1,2,6-trisphosphate (IP3) were added and the number of parallel wells in each treatment was four. The proliferation of cells was analysed after 24 hours of incubation by labelling each well with 0.2 μCi of ^3H-thymidine for two hours. After that the cells were trypsinated and harvested on a filter. A Melt-on scintillator (Meltilex™ A; Wallac, Turku, Finland) was allowed to melt on the filter. The radioactivity of the sheets was counted on a liquid scintillator counter (1450 Microbeta Wallac, Turku, Finland).\nStimulation of proliferation was inhibited by the addition of IP3 with the following result:\nIn a procedure similar to the one described in Example 1, D-3,4,5-tri-O-(phenylcarbamoyl) myo-inositol-1,2,6-trisphosphate (PP 11-201) was added with the result shown below: […]"}}}
{"compound": "O=P(O)(O)OC1CN(CCc2ccccc2)CC(OP(=O)(O)O)C1OP(=O)(O)O", "note": "(centres unmarked) [1,5-dideoxy-1,5-imino-N-(2-phenylethyl)arabinitol-2,3,4-trisphosphate]", "values": [{"measurement": "Dose where effects are observed", "setting": "mice", "value": ">512", "unit": "mg/kg"}]}
{"compound": "methyl-6-O-butyl-α-D-mannopyranoside-2,3,4-trisphosphate", "values": [{"measurement": "Dose where effects are observed", "setting": "mice", "value": ">512", "unit": "mg/kg"}]}
{"compound": "CCCCOC[C@H]1O[C@H](OC)[C@H](OP(=O)(O)O)[C@@H](OP(=O)(O)O)[C@@H]1OP(=O)(O)O", "note": "[methyl-6-O-butyl-α-D-glycopyranoside-2,3,4-trisphosphate]", "values": [{"measurement": "Dose where effects are observed", "setting": "mice", "value": 256, "unit": "mg/kg"}]}
{"compound": "1,2-O-ethylene-β-D-fructopyranoside-2,3,4-trisphosphate", "values": [{"measurement": "Dose where effects are observed", "setting": "mice", "value": ">512", "unit": "mg/kg"}]}
{"compound": "O=C(Nc1ccccc1)O[C@@H]1[C@@H](OC(=O)Nc2ccccc2)[C@@H](OP(=O)(O)O)[C@@H](OP(=O)(O)O)[C@H](OP(=O)(O)O)[C@H]1OC(=O)Nc1ccccc1", "note": "[PP 11-201, D-3,4,5-tri-O-(phenylcarbamoyl)myo-inositol-1,2,6-trisphosphate]", "values": [{"measurement": "elasticity of the vessel walls (microscopic investigation)", "setting": "Wistar rats", "value": "improved"}, {"measurement": "Neointima formation", "setting": "Wistar rats", "value": 0.43, "unit": "mm^2"}, {"measurement": "Reduction (%) of neointima formation", "setting": "Wistar rats", "value": 62, "unit": "%"}, {"measurement": "inhibition (%) of FGF2-stimulated proliferation", "setting": "[1]; 0.1 μM", "value": 49, "unit": "%"}, {"measurement": "inhibition (%) of FGF2-stimulated proliferation", "setting": "[1]; 1 μM", "value": 61, "unit": "%"}, {"measurement": "inhibition (%) of FGF2-stimulated proliferation", "setting": "[1]; 10 μM", "value": 70, "unit": "%"}]}
{"compound": "CCC(=O)OC1C(OC(=O)CC)C(OP(=O)(O)O)C(OP(=O)(O)O)C(OP(=O)(O)O)C1OC(=O)CC", "note": "[D-3,4,5-tri-O-propanoyl-myo-inositol-1,2,6-trisphosphate]", "values": [{"measurement": "Dose where effects are observed", "setting": "mice", "value": 256, "unit": "mg/kg"}]}
{"compound": "O=C(O)CP(=O)(O)O[C@@H]1[C@H](OP(=O)(O)CC(=O)O)[C@H](O)[C@@H](O)[C@H](O)[C@H]1OP(=O)(O)CC(=O)O", "note": "[D-myo-inositol-1,2,6-tris(carboxymetylphosphonate)]", "values": [{"measurement": "Dose where effects are observed", "setting": "mice", "value": ">512", "unit": "mg/kg"}]}
{"compound": "O=P(O)(O)O[C@@H]1[C@H](OP(=O)(O)O)[C@H](O)[C@@H](O)[C@H](O)[C@H]1OP(=O)(O)O", "note": "[IP3, D-myo-inositol-1,2,6-trisphosphate]", "values": [{"measurement": "Dose where effects are observed", "setting": "mice", "value": ">512", "unit": "mg/kg"}, {"measurement": "elasticity of the vessel walls (microscopic investigation)", "setting": "Wistar rats", "value": "improved"}, {"measurement": "Neointima formation", "setting": "Wistar rats", "value": 0.48, "unit": "mm^2"}, {"measurement": "Reduction (%) of neointima formation", "setting": "Wistar rats", "value": 57, "unit": "%"}, {"measurement": "inhibition (%) of FGF2-stimulated proliferation", "setting": "[1]; 1 μM", "value": 61, "unit": "%"}, {"measurement": "inhibition (%) of FGF2-stimulated proliferation", "setting": "[1]; 10 μM", "value": 44, "unit": "%"}, {"measurement": "inhibition (%) of FGF2-stimulated proliferation", "setting": "[1]; 100 μM", "value": 68, "unit": "%"}]}
{"compound": "CCCCC(=O)OC1C(OC(=O)CCCC)C(OP(=O)(O)O)C(OP(=O)(O)O)C(OP(=O)(O)O)C1OC(=O)CCCC", "note": "[D-3,4,5-tri-O-pentanoyl-myo-inositol-1,2,6-trisphosphate]", "values": [{"measurement": "Dose where effects are observed", "setting": "mice", "value": 128, "unit": "mg/kg"}]}
